Converted amounts (≈) assume the structure as drawn. Read-outs that look alike come from different tables or passages of the source.
Assays:
C. coli ATCC 33559 [1] = assay: Minimum bactericidal concentration (MBC); type: cell-based, Campylobacter coli; settings: for MBC: Campylobacter coli
Experimental: (§1) Initially we re-confirmed the efficacy of the 79 resynthesized compounds against C. jejuni 81–176 and C. coli ATCC 33559.
(§2) Minimum inhibitory concentration value not necessarily indicates the killing concentration; therefore, we determined MBC for the top-12 compounds. MBC is defined as the concentration at which 99.9% (below detection limit) of Campylobacter organisms are killed. The MBC for each of these compounds were determined as described previously (Ling et al., [2015]). […] Overall MIC and MBC values were higher for C. coli compared to C. jejuni strain. The MIC and MBC for these 12 compounds for both C. jejuni and C. coli are presented in (Table 1).

C. coli ATCC 33559 [2] = assay: Minimum inhibitory concentration (MIC); type: cell-based
Experimental: (§3) The dose-dependent effect of 35 compounds against the highly pathogenic C. jejuni 81–176 strain was tested. Compounds were two-fold serially diluted (200 to 12.5 μM). One hundred micro liter of the OD600 0.1 adjusted C. jejuni culture was pipetted in to each well of a 96 well plate, treated with 1 μL of diluted compound and the plate was incubated at 42°C under microaerobic conditions for 24 h. Growth inhibition was assessed as above.
as §1, §2

C. jejuni 81–176 [3] = assay: Minimum bactericidal concentration (MBC); type: cell-based, Campylobacter jejuni; settings: for MBC: Campylobacter jejuni, read-out: C. jejuni MBC (minimum bactericidal concentration)
Experimental: (§4) The percentage of C. jejuni growth inhibition was calculated as mentioned previously (De La Fuente et al., [2006]) using the following formula: percentage of inhibition = 100 × (OD negative control–OD test compound)/(OD negative control–OD positive control). Compounds that inhibited Campylobacter growth ≥ 99.0% were selected as primary hits. The culture in wells with ≥ 99% growth inhibition were streaked onto fresh MH agar, as were the sterility, antibiotic and no compound control wells. Bacterial growth was measured on the plate after 48 h at 42°C. Based on the recovery of C. jejuni on MH agar plates, the compound was classified as either “bacteriostatic” or “bactericidal.”
as §2

C. jejuni 81–176 [4] = assay: Minimum inhibitory concentration (MIC), two-fold serial dilution, OD600 end point; type: cell-based; settings: Campylobacter jejuni, 24 h, read-out: C. jejuni MIC (minimum inhibitory concentration)
Experimental: A primary screen was conducted using the highly invasive C. jejuni strain 81–176 originally isolated from a diarrheic patient (Korlath et al., [1985]). The C. jejuni strains were routinely grown on Mueller-Hinton (MH; Becton Dickinson and Company, MD) agar under microaerobic conditions (85% N2, 10% CO2, and 5% O2) in a DG250 Microaerophilic Workstation (Microbiology International, MD) for 18 h, washed with MH broth and adjusted to a final OD600 of 0.1 in MH broth. One hundred micro liter of culture was transferred to 96-well plates and 1 μL (200 μM/μL) of library compounds and controls were added using a pin tool (Wallace et al., [2011]). Growth controls including DMSO (1% final concentration), kanamycin (50 μg), and chloramphenicol (20 μg) were added to duplicate wells along with 100 μL un-inoculated MH broth as sterility control. The final concentration was 200 μM for each small molecule. Prior to growth, an aluminum foil was applied (to avoid drug degradation) and plates were then incubated at 42°C, under microaerobic conditions for 24 h. The end-point OD600 was measured in a Sunrise TM Tecan plate reader (Tecan Group Ltd. San Jose, CA). We initially tried to exploit the automatic kinetic OD reader option of the Sunrise TM Tecan system but were un-successful. Maintenance of the microaerophilic growth conditions required by C. jejuni was difficult in the Tecan reader which is ideally suited for aerobic bacteria. Therefore, we used an end point assay. The quality of high-throughput screen (HTS) was evaluated by calculating the Z′-factor as described previously (Zhang et al., [1999]). Z′-factor is defined as 1−((3σp + 3σn)/|μp − μn|)) where “σp” and “σn” are the standard deviations of the positive (culture+ DMSO) and negative (culture+antibiotics) controls, respectively and “μp” and “μn” are the means of the positive and negative controls, respectively. A Z′-factor >0.5 indicates a robust assay (Zhang et al., [1999]).
as §4, §3
The minimal concentrations of compounds that inhibit the growth of C. jejuni were tested by two-fold serial dilution of each of compound in media as well as in DMSO. The results were reproducible irrespective of diluent used; however, a few compounds precipitated when media was used as a diluent. A recent study also described the in-solubility issues with a few small molecule compounds when dissolved in media for MIC determination (Selin et al., [2015]). […] Among the 21 compounds, 16 were effective at 50 μM, 7 were effective at 25 μM, and 4 were effective at 12.5 μM. We selected top-12 bactericidal compounds with MICs varying from 100 to 12.5 μM concentration for further downstream study.

Hemolytic activity = type: cell-based; settings: 10% sheep RBCs, 37°C
Experimental: The hemolytic activity of the top-12 compounds were determined as previously described (Strom et al., [2003]; Selin et al., [2015]). Briefly, 500 μL of sheep red blood cells (LAMPIRE Biological Laboratories, Pipersville, PA) were washed three times in PBS and resuspended in 5 mL of PBS to prepare a working concentration of 10% RBCs. Two hundred micro liter of the 10% RBCs suspension was incubated with 200 μM concentrations of compounds for 1 h at 37°C in a 96 well plate. After incubation, the plate was centrifuged (4000 rpm, 5 min) and placed on ice for few min. Supernatants from each well was transferred to a fresh 96 well plate and OD of 540 nm was measured. The PBS and 0.1% Triton X-100 were used as negative and positive controls, respectively. A range of 1–10% DMSO was also used as a control. A percent hemolysis was calculated using the following formula:
% Hemolysis=(OD of compound−OD of DMSO/ OD of Triton-X100)×100
Two independent experiments in triplicate were performed and results were expressed as the % average hemolysis.

[5] = ATCC33559, concentration at which 99.9% of organisms are killed, read-out: C. coli MBC
[6] = Campylobacter coli, ATCC33559; read-out: C. coli MIC
[7] = concentration at which 99.9% of organisms are killed
[8] = C. jejuni 81–176, 42°C microaerobic, dilution 200 to 12.5 μM
[9] = sheep red blood cells (10% suspension)
[10] = ATCC33559, read-out: C. coli MBC
[11] = Campylobacter coli, ATCC33559, read-out: C. coli MIC

SMILES | MBC relative to MIC for C. coli (C. coli ATCC 33559 [1]) | MBC (C. coli ATCC 33559 [1]; [5]) [µM] | MIC (C. coli ATCC 33559 [2]; [6]) [µM] | MBC relative to MIC for C. jejuni (C. jejuni 81–176 [3]) | MBC (C. jejuni 81–176 [3]; [7]) [µM] | MIC (C. jejuni 81–176 [4]; [8]) [µM] | hemolysis at 1 h, 200 µM (Hemolytic activity; [9]) [%] | MBC (C. coli ATCC 33559 [1]; [10]) [µM] | MIC (C. coli ATCC 33559 [2]; [11]) [µM] | MBC (C. jejuni 81–176 [3]) [µM] | MIC (C. jejuni 81–176 [4]) [µM] | hemolysis at 1 h, 200 µM (Hemolytic activity) [%]
O=S(=O)(Nc1cccc(C(F)(F)F)c1)c1ccc(Br)cc1 [Comp 1] | same as that of their MIC | 50 (≈ 19 µg/mL) | 50 (≈ 19 µg/mL) | same as that of their MIC | 50 (≈ 19 µg/mL) | 50 (≈ 19 µg/mL) | 7.4 |  |  |  |  | 
COc1ccc(CN2CCN(c3ccc(F)cc3)CC2)cc1C [Comp 2] | two-fold higher |  |  | same as that of their MIC |  |  |  | 100 (≈ 31.4 µg/mL) | 50 (≈ 15.7 µg/mL) | 100 (≈ 31.4 µg/mL) | 100 (≈ 31.4 µg/mL) | 0
CN(C)c1ccc(CN2CCN(c3ccccc3Cl)CC2)cc1 [Comp 3] | same as that of their MIC |  |  | two-fold higher |  |  |  | 50 (≈ 16.5 µg/mL) | 50 (≈ 16.5 µg/mL) | 25 (≈ 8.25 µg/mL) | 12.5 (≈ 4.12 µg/mL) | 0
Clc1ccc(N2CCN(Cc3ccsc3)CC2)cc1 [Comp 4] | two-fold higher | 100 (≈ 29.3 µg/mL) | 50 (≈ 14.6 µg/mL) | same as that of their MIC | 50 (≈ 14.6 µg/mL) | 50 (≈ 14.6 µg/mL) | 0 |  |  |  |  | 
Cc1ccc(N2CCN(C/C=C/c3ccccc3)CC2)cc1 [Comp 5] | same as that of their MIC | 50 (≈ 14.6 µg/mL) | 50 (≈ 14.6 µg/mL) | same as that of their MIC | 50 (≈ 14.6 µg/mL) | 50 (≈ 14.6 µg/mL) | 0 |  |  |  |  | 
O=c1c(Cl)c(Cl)cnn1-c1ccccc1Cl [Comp 7] | same as that of their MIC | 50 (≈ 13.8 µg/mL) | 50 (≈ 13.8 µg/mL) | same as that of their MIC | 12.5 (≈ 3.44 µg/mL) | 12.5 (≈ 3.44 µg/mL) | 0 |  |  |  |  | 
Cc1c(C(C)NCc2cccc(OC3CCCC3)c2)cnn1-c1ccccc1 (stereo not drawn) [Comp 10] | same as that of their MIC | 100 (≈ 37.6 µg/mL) | 100 (≈ 37.6 µg/mL) | same as that of their MIC | 50 (≈ 18.8 µg/mL) | 50 (≈ 18.8 µg/mL) | 0 |  |  |  |  | 
COc1ccc(CNCc2ccc(Cl)s2)cc1OCC(O)CN1CCCC1 (stereo not drawn) [Comp 12] | two-fold higher | 100 (≈ 41.1 µg/mL) | 50 (≈ 20.5 µg/mL) | same as that of their MIC | 100 (≈ 41.1 µg/mL) | 100 (≈ 41.1 µg/mL) | 0 |  |  |  |  | 
CN(Cc1cccc2cnccc12)CC1CCCN(CCc2ccc(F)cc2)C1 (stereo not drawn) [Comp 13] | same as that of their MIC | 50 (≈ 19.6 µg/mL) | 50 (≈ 19.6 µg/mL) | two-fold higher | 25 (≈ 9.79 µg/mL) | 12.5 (≈ 4.89 µg/mL) | 0 |  |  |  |  | 
CN(CC(O)COc1ccccc1CNC1(c2ccccc2)CC1)C1CCCCC1 (stereo not drawn) [Comp 17] | same as that of their MIC | 50 (≈ 20.4 µg/mL) | 50 (≈ 20.4 µg/mL) | two-fold higher | 25 (≈ 10.2 µg/mL) | 12.5 (≈ 5.11 µg/mL) | 0 |  |  |  |  | 
CN(Cc1ccccc1)CC1CCCN(CCc2ccc(F)cc2)C1 (stereo not drawn) [Comp 18] | two-fold higher | > 200 | 200 (≈ 68.1 µg/mL) | same as that of their MIC | 25 (≈ 8.51 µg/mL) | 25 (≈ 8.51 µg/mL) | 0 |  |  |  |  | 
CC(=O)Nc1ccc(CN(C)CC2CCCN(CCc3cccc(C(F)(F)F)c3)C2)cc1 (stereo not drawn) [Comp 22] | same as that of their MIC | 100 (≈ 44.8 µg/mL) | 100 (≈ 44.8 µg/mL) | two-fold higher | 25 (≈ 11.2 µg/mL) | 12.5 (≈ 5.59 µg/mL) | 0 |  |  |  |  | 

Source: PMC4821856, “Novel Anti-Campylobacter Compounds Identified Using High Throughput Screening of a Pre-selected Enriched Small Molecules Library” (Frontiers in Microbiology, 2016)
